# Test results reported in patent US20140199714A1, “METHOD FOR DETECTING CANCER CELLS METASTASIZING INTO SENTINEL LYMPH NODE” (SHINSHU UNIVERSITY, priority 2008, published 2014).
# Key:
# [1] = tested on: ICAM-1 mRNA in human LECs; test: Quantitative RT-PCR of ICAM-1 mRNA in human LECs; type: cell-based
# Protocol: The 0 hr., 1 hr., 4 hrs. and 18 hrs. expressions of ICAM-1 mRNA were evaluated by quantitative reverse transcription polymerase chain reaction (RT-PCR) for ICAM-1 cDNA. The total RNA was extracted from the cultured human LECs using ISOGEN reagent (available from Nippon Gene Co., Ltd., Japan) according to the manufacturer's instructions. The concentration of each RNA was calculated using 260 nm absorbance with a spectrophotometer. The extracted RNA was reverse-transcribed with M-MLV reverse transcriptase (available from Ambion Inc., US). For RT-PCR analysis, each superscript first-strand synthesis kit (available from Invitrogen Corporation, US) was used with 1.0 μg of the total RNA. Forward and reverse primers of ICAM-1 and cyclophilin A were used for each specific probe, respectively as follows; ICAM-1 (available from TAKARA BIO INC., Japan), and cyclophilin A:
# The cDNA was diluted 5-fold prior to PCR amplification. Quantitative RT-PCR was performed using a LIGHT CYCLER rapid thermal cycler system (available from Roche Diagnostics Limited, UK). Reactions were performed in a 20 μL volume with 0.5 μM primers, TAQ DNA POLYMERASE, and the buffer was included in the SYBR PREMIX EX TAQ (available from TAKARA BIO INC., Japan; SYBR is a registered trademark). The PCR protocol included 10 secs. of denaturation step followed by 45 cycles of 95° C. denaturation for 5 secs. and 60° C. annealing for 20 secs. The fluorescent product was detected at the end of the 72° C. extension period. Negative controls included PCR reactions with cDNA omitted. To confirm amplification specificity, PCR products from each primer pair were subjected to melting curve analysis. Quantification data was analyzed with LIGHT CYCLER analysis software. The results are presented as normalized ratio of the expression of ICAM-1 mRNA to cyclophilin A.
# E-selectin on human LECs = test: Immunohistochemical expression of E-selectin on cultured human LECs; type: cell-based
# Protocol: Using an indirect immunohistochemical technique, the inventors examined the effects of the supernatants of culture medium of two kinds of carcinoma cells, MDA-MB-231 and MCF-7, on the expression of adhesion molecules such as E-selectin, P-selectin, vascular cell adhesion molecule (VCAM)-1, and intercellular adhesion molecule (ICAM)-1 on the human LECs. The carcinoma cells were plated in DMEM/F12 with 10% FBS, which was replaced the following day with DMEM/F12 with 3% FBS, and then collected after overnight culture. The collected solution was centrifuged at 2,000 rpm for 5 min. at 4° C. To examine the effects of the supernatants on the expression of the adhesion molecules on the human LECs, 1 mL of each collected solution was added to starvation culture medium, EBM-2 with 3% FBS of the human LECs, and then stimulated for 48 hrs. on the cells. In some experiments, the supernatant solutions at different concentrations (1/100 or 1/10,000 dilution) were constructed with appropriate volumes of DMEM/F12 with 3% FBS.
# Indirect immunohistochemical studies were performed on the cultured LECs seeded or glass slides coated with type I collagen, and then the cells were fixed with 3.3% formalin in phosphate-buffered saline solution (PBS), for 20 min. at room temperature. The cells were washed three times with PBS, and then incubated overnight at 4° C. with primary polyclonal human antisera to E-selectin/CD62E (dilution 10 μg/mL, available from R&D Systems, US), P-selectin/CD62P (dilution 10 μg/mL, available from R&D Systems, US), VCAM-1/CD106 (dilution 10 μg/mL, available from R&D Systems, US), and ICAM-1/CD54 (dilution 10 μg/mL, available from R&D Systems, US).
# Before primary staining, the cultured cells were permeabilized with 0.1% TRITON-X. After washing three times in PBS, the cells were incubated for 1 hr. at room temperature with 1:100 diluted ALEXA FLUOR 488 donkey anti-mouse IgG (available from Invitrogen, US). The nuclei of cultured cells were counter-stained and mounted with PROLONG GOLD antifade reagent with 4′-6-diamidine-2-phenylindole (DAPI) (available from Molecular Probes, US), examined by a fluorescent microscope (Leica, Switzerland), and photographed.
# Immunohistochemistry was performed on the cultured human LECs or the fresh-frozen SLNs isolated from the breast cancer patients. In brief, the cultured LECs were fixed with 10% formalin in the phosphate-buffered saline solution (PBS) at room temperature. The cells were incubated for 4 hrs. at room temperature with primary polyclonal human antisera platelet-endothelial cell adhesion molecule (PECAM)-1 (dilution 1:100, available from BD Biosciences, US), lymphatic vessel endothelial hyaluronan receptor (LYVE)-1 (dilution 1:50, available from RELIATech, Germany), PROX-1 (dilution 1:50, available from AngioBio, US), podoplanin (dilution 1:50, available from AngioBio, US), vascular endothelium growth factor receptor 3 (VEGF R3) (dilution 1:50, available from Santa Cruz, US), E-selectin/CD62E (dilution 1:50, available from R&D systems, US), P-selectin/CD62P (dilution 1:50, available from R&D systems, US), vascular cell adhesion molecule (VCAM)-1/CD106 (dilution 1:50, available from R&D systems, US), and intercellular adhesion molecule (ICAM)-1/CD54 (dilution 1:50, available from R&D systems, US). Before the staining, permeabilization of the cultured cells with 0.1% TRITON-X was performed. Then, the cells were stained using the following antibodies: ALEXA FLUOR 488 chicken anti-rabbit IgG or ALEXA FLUOR 488 donkey anti-mouse IgG (available from Invitrogen, US). The nuclei of the cultured cells were counter-stained and mounted with ProLong Gold antifade reagent with 4′-6-diamidine-2-phenylindole (DAPI) (available from Molecular Probes, US). The cultured cells were examined by a fluorescent microscope (available from Leica, Germany) and photographed. […]
substance,measurement,setting,value
CCL2: chemokine CCL2,expression of ICAM-1 mRNA (ratio to cyclophilin A),"[1]; 10 ng/mL CCL2, 1 hr. after the stimulation",significantly increased
same,expression of ICAM-1 mRNA (ratio to cyclophilin A),"[1]; 10 ng/mL CCL2, around 4 hrs. after the stimulation",maximal level
same,expression of ICAM-1 mRNA (ratio to cyclophilin A),"[1]; 10 ng/mL CCL2, up to 18 hrs. after the stimulation",increased slightly
same,immunoreaction of anti-E-selectin,"E-selectin on human LECs; 10 ng/mL CCL2, stimulation time increased to 18 hrs. and 48 hrs.",markedly decreased
same,staining with E-selectin antiserum on LECs,E-selectin on human LECs; 4 hrs-stimulation of 10 ng/mL CCL2,Slight staining
same,expression of E-selectin on human LECs,E-selectin on human LECs; 18 hrs.-stimulation with 10 ng/mL chemokine,Little or no expression
